Assay results published in doi:10.1101/2024.12.15.628575v1 (biorxiv, 2024).
Like-named read-outs stand apart in the source and are kept apart here.

Tests used:
[1] = target: T1, human CPT1a (Homo sapiens, UniProt P50416); experiment: DTNB colorimetric CoA release assay, […] nm, transfected Expi293 pellet extract; type: biochemical
T1 sequence (P50416 2-773): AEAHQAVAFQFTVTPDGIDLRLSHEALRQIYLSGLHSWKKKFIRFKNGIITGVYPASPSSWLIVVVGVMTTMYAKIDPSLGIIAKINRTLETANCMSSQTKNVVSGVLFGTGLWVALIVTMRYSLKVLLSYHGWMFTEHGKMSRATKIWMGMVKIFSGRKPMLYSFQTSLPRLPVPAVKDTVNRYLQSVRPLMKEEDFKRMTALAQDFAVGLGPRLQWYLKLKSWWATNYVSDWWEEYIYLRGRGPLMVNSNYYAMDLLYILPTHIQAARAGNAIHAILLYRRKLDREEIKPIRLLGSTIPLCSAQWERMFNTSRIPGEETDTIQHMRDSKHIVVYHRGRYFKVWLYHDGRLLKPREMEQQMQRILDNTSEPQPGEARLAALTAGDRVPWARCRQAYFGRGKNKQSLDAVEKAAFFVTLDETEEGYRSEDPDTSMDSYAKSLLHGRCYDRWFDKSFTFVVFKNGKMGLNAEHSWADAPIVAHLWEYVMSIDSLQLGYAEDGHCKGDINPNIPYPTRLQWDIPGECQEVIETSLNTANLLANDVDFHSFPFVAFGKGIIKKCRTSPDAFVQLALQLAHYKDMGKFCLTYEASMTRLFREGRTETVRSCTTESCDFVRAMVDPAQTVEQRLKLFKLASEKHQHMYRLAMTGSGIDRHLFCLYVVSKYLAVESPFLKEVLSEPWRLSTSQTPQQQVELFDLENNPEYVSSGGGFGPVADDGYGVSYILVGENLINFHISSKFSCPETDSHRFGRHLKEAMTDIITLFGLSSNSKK

[2] = target: T1, human CPT1a; experiment: as above; type: cell-based

| IC50 [1] | IC50 [2] | Compound |
| --- | --- | --- |
| 179 µM | – | CN(C)CCCN1c2ccccc2Sc2ccc(Cl)cc21 [chlorpromazine] |
| 4710 µM | – | O=C(O)[C@@]1(CCCCCCOc2ccc(Cl)cc2)CO1 [etomoxir] |
| – | 319 µM | C1CCC(C(CC2CCCCN2)C2CCCCC2)CC1 (stereo not drawn) [perhexiline] |
